From US3932650A, “Trans-octahydropyridoindolobenzazepines as central nervous system depressants” (E. I. Du Pont de Nemours & Company, priority 1973, dated 1976) come the findings set out here.

Each structure is given as a SMILES string. Read-outs that look alike come from different tables or passages of the source.

What is called ED50 is the midpoint of the dose-response relation.

The test system of assay [1] is locomotor activity. The assay can be described thus: Decreased Locomotor Activity (L.M.A.), mouse. Type of assay: in vivo. The settings on record: mouse, po; minimal effective dose; read-out: L.M.A. MED. As to the method: (§1) Decreased Locomotor Activity (L.M.A.)
(§2) This reaction sign is measured subjectively by observing how an animal behaves when it is removed from an observation cage and placed on a table top. […] The degree of stimulation by the observer needed to produce active locomotion is rated on an arbitrary scale. This ranges from a score of -1 where only a slight touch of the animal's body is required to a -4 where the animal is unresponsive or minimally responsive to the application of a pain stimulus (pressure at the base of the tail). The minimal effective dose (MED) is the lowest oral dose producting an obvious decrease of locomotor activity (with a score of at least -1). Groups of 3 mice are given decreasing oral doses at 0.5 log intervals (300, 100, 30. . .etc.) until no behavioral effects are evident. Decrease of locomotor activity is indicative of general central nervous system depressant activity.

Assay [2] concerns locomotor activity. The assay can be described thus: Decreased Locomotor Activity (L.M.A.), rat. The following applies: po; minimal effective dose; read-out: L.M.A. MED. Type of assay: in vivo. On the procedure: as §1, §2
Assay [3] relates to eyelid closure (ptosis). Put plainly: Ptosis, mouse. Type of assay: in vivo. The following applies: mouse, po; passive ptosis; read-out: Ptosis MED.
For assay [4], the system named is eyelid closure (ptosis). The assay can be described thus: Ptosis, rat. Type of assay: in vivo. The following applies: rat, po; passive ptosis; read-out: Ptosis MED. An excerpt: Degree of eyelid closure is used as a measure of central nervous system depression. An animal is removed from its observation cage and allowed to remain outside the cage for 30 seconds. At the end of this time a rating of degree of eyelid closure is made on an arbitrary scale.

Assay [5] deals with catalepsy. The assay can be described thus: Catalepsy, mouse. Type of assay: in vivo. The settings on record: mouse, po; read-out: Catalepsy MED. The source says:
(§3) The ability of an animal to remain in an abnormal position is used as another indication of central nervous system depressant activity. A test animal is removed from its observation cage and positioned so that its hind legs are on the table top and its front legs rest on the side of the observation cage. If an animal maintains this position for at least 10 seconds, it is considered to be showing cataleptic behavior.

The subject of assay [6] is catalepsy. Put plainly: Catalepsy, rat. The following applies: rat, po; read-out: Catalepsy MED. Type of assay: in vivo.
From the text: as §3

The subject of assay [7] is phenyl-p-benzoquinone-induced writhing. The assay can be described thus: Phenylquinone Writhing (P.Q.W.). Type of assay: in vivo, mouse. The settings on record: po. For orientation: An intraperitoneal irritant provokes the stretching counted in writhing tests.
[8] abbreviates: 0.5 h, mouse, phenyl-p-benzoquinone 2.5 mg/kg i.p. 30 minutes after compound, read-out: P.Q.W. ED50.

Take `c1ccc(CN2CC[C@@H]3[C@@H](C2)c2cccc4c2N3c2ccccc2CC4)cc1` (relative stereo) [Example 6, trans-3-Benzyl-1,2,3,4,4a,8,9,14a-octahydropyrido[4',3':2,3]indolo[1,7-ab][1]benzazepine]: the minimal effective dose in the assay with locomotor activity [1] is 2 mg/kg; in the assay on locomotor activity [2], 65 mg/kg; in the assay on eyelid closure (ptosis) [3], 13 mg/kg; in the assay with eyelid closure (ptosis) [4], 150 mg/kg; in the assay on catalepsy [5] it was 49 mg/kg; with catalepsy [6] it was above 300 mg/kg. Besides, the ED50 in assay [7] (setting [8]) worked out at 28 mg/kg.

As for `c1ccc2c(c1)CCc1cccc3c1N2[C@H]1CCN(C[C@H]2[C@@H]4CCCC[C@@H]42)C[C@H]31` (relative stereo) [Example 7, trans-1,2,3,4,4a,8,9,14a-Octahydro-3-(exo-7-norcarylmethyl)pyrido[4',3':2,3] indolo[1,7-ab][1]benzazepine], the minimal effective dose turned out to be 3 mg/kg in the assay with locomotor activity [1]; 3 mg/kg in the assay on locomotor activity [2]; 3 mg/kg in the assay on eyelid closure (ptosis) [3]; 3 mg/kg in the assay on eyelid closure (ptosis) [4]; 3 mg/kg with catalepsy [5]; 300 mg/kg in the assay with catalepsy [6]. Also, in assay [7] (setting [8]), the ED50 is 14 mg/kg.

On to `Cl.c1ccc2c(c1)CCc1cccc3c1N2[C@@H]1CCN(CC2CCCC2)C[C@@H]31` (relative stereo) [cyclopentylmethyl, trans-3-cyclopentylmethyl1,2,3,4,4a,8,9,14a-octahydropyrido[4',3':2,3]indolo[1,7-ab][1]benzazepine hydrochloride], for which the ED50 in assay [7] (setting [8]) came out at 2 mg/kg.

Turning to `c1ccc(CCN2CC[C@H]3[C@H](C2)c2cccc4c2N3c2ccccc2CC4)cc1` (relative stereo) [phenethyl, trans-1,2,3,4,4a,8,9,14a-octahydro-3-phenethylpyrido[4',3+:2,3]indolo[1,7-ab][1]benzazepine], the ED50 in assay [7] (setting [8]) came out at 4.7 mg/kg.

Regarding `COc1ccc2c3c1O[C@H]1[C@@H](O)C=C[C@H]4[C@@H](C2)N(C)CC[C@@]341` [Codeine phosphate], the ED50 in assay [7] (Mus musculus, read-out: Analgesic ED50) was found to be 19 mg/kg.

With `CC(=O)Oc1ccccc1C(=O)O` [aspirin], in assay [7] (setting [8]), the ED50 is 94 mg/kg.

`c1ccc(CN2CCc3c(c4cccc5c4n3-c3ccccc3CC5)C2)cc1` [benzyl hexahydro, 3-benzyl-1,2,3,4,8,9-hexahydropyrido[4',3':2,3]indolo[1,7-ab][1] benzazepine]: the minimal effective dose was around 200 mg/kg in the assay on locomotor activity [1]; above 300 mg/kg with locomotor activity [2]; above 300 mg/kg in the assay with eyelid closure (ptosis) [3]; above 300 mg/kg in the assay with eyelid closure (ptosis) [4]; above 300 mg/kg in the assay on catalepsy [5]; above 300 mg/kg in the assay with catalepsy [6].

With `COc1ccc2c3c1O[C@H]1[C@@H](O)C=C[C@H]4[C@@H](C2)N(C)CC[C@@]341` [codeine], in assay [7] (Mus musculus, 0.5 h, read-out: P.Q.W. ED50), the ED50 came to 19 mg/kg.

On to `CC(C)CN1CCc2c(c3cccc4c3n2-c2ccccc2CC4)C1` [isobutyl hexahydro], for which the minimal effective dose with locomotor activity [1], in the assay on eyelid closure (ptosis) [3] and with catalepsy [5] was around 60 mg/kg throughout.
